# Source: patent US4937242A, “1,4-dihydropyridine derivatives and pharmaceutical composition thereof” (Kyoto Pharmaceutical Industries, Ltd., priority 1987, dated 1990)
# Counter-ions that a name gives are not always drawn.
# Columns and labels:
# [1] = system: spontaneously hypertensive rats; assay: Hypotensive activity in male spontaneously hypertensive rats (oral); format: in vivo, rat; details: systolic pressure at tail vein, oral 10 mg/kg
# Protocol: Hypotensive activity [Method] Male spontaneously hypertensive rats at the 12th to 16th week in age and presenting a systolic pressure of around 200 mmHg were used as experimental animals, and 3 to 8 animals were assigned to each group. The subject compound (indicated by the example number), in an aqueous solution or 5% gum arabic suspension, was orally administered in a dose of 10 mg/kg. At the 4th and 8th hours following the administration, the systolic pressure at tail vein of each rat was noninvasively measured by means of a sphygmomanometer (USM-105, Ueda Seisakusho, Japan). A group of rats administered the solvent alone was used as a control group.
# Gum arabic or water was administered to rats of the control group.
# [2] = Water solubility test; format: physicochemical; details: powdered, 20°±5° C., within 30 minutes, read-out: Amount (ml) of water required to dissolve 1 g of the subject compounds (converted)
# Protocol: The subject compounds (indicated by the example number), after being powdered, were placed in water and vigorously shaken at 20°±5° C. for 30 seconds a 5-minute intervals, and within 30 minutes, the amount of water required to dissolve 1 g of the compound (I) of the present invention therein was measured.
SMILES,"Change in blood pressure, 4 hours after administration [1]","Change in blood pressure, 8 hours after administration [1]",solubility at 0.5 h [2]
C#CCN1CCN(CC(C)(C)COC(=O)C2=C(C)NC(C)=C(C(=O)OC)C2c2cccc([N+](=O)[O-])c2)CC1 (centres unmarked) [Example 12],-70 mmHg,-102 mmHg,500 mg/mL
"COC(=O)C1=C(C)NC(C)=C(C(=O)OCC(C)(C)CN2CCN(CC#N)CC2)C1c1cccc([N+](=O)[O-])c1.Cl.Cl (centres unmarked) [Example 23, 3-(4-Cyanomethyl-1-piperazinyl)-2,2-dimethylpropyl methyl 2,6-dimethyl-4-(m-nitrophenyl)-1,4-dihydropyridine-3,5-dicarboxylate dihydrochloride]",-104 mmHg,-82 mmHg,500 mg/mL
COC(=O)C1=C(C)NC(C)=C(C(=O)OCC(C)(C)CN2CCN(CCN3CCCCC3)CC2)C1c1cccc([N+](=O)[O-])c1 (centres unmarked) [Example 16],-34 mmHg,-52 mmHg,500 mg/mL
"COC(=O)C1=C(C)NC(C)=C(C(=O)OCC(C)(C)CN2CCN(C(=O)c3ccccc3)CC2)C1c1cccc([N+](=O)[O-])c1.Cl (centres unmarked) [Example 6, 2,2-Dimethyl-3-(4-benzoyl-1-piperazinyl)propyl Methyl 1,4-Dihydro-2,6-dimethyl-4-(3-nitrophenyl)-3,5-pyridinedicarboxylate Hydrochloride]",-64 mmHg,-88 mmHg,–
COC(=O)C1=C(C)NC(C)=C(C(=O)OCC(C)(C)CN2CCN(CC(=O)N3CCCC3)CC2)C1c1cccc([N+](=O)[O-])c1 (centres unmarked) [Example 26],-53 mmHg,-32 mmHg,500 mg/mL
"COC(=O)C1=C(C)NC(C)=C(C(=O)OCCN(C)Cc2ccccc2)C1c1cccc([N+](=O)[O-])c1 (centres unmarked) [Nicardipine, nicardipine, reference compound]",-29 mmHg,-22 mmHg,6.25 mg/mL
COC(=O)C1=C(C)NC(C)=C(C(=O)OCC(C)(C)CN2CCN(CCO[N+](=O)[O-])CC2)C1c1cccc([N+](=O)[O-])c1 (centres unmarked) [Example 24],-91 mmHg,-69 mmHg,500 mg/mL
COC(=O)C1=C(C)NC(C)=C(C(=O)OCC(C)(C)CN2CCN(C(C)=O)CC2)C1c1cccc([N+](=O)[O-])c1 (centres unmarked) [Example 8],-56 mmHg,-90 mmHg,–
"C=CCN1CCN(CC(C)(C)COC(=O)C2=C(C)NC(C)=C(C(=O)OC)C2c2cccc([N+](=O)[O-])c2)CC1.Cl.Cl (centres unmarked) [Example 2, 3-(4-allyl-1-piperazinyl)-2,2-dimethylpropyl methyl 2,6-dimethyl-4-(m-nitrophenyl)-1,4-dihydropyridine-3,5-dicarboxylate dihydrochloride]",-81 mmHg,-104 mmHg,500 mg/mL
COC(=O)C1=C(C)NC(C)=C(C(=O)OCC(C)(C)CN2CCN(C(C)C(C)=O)CC2)C1c1cccc([N+](=O)[O-])c1 (centres unmarked) [Example 19],-86 mmHg,-85 mmHg,500 mg/mL
COC(=O)C1=C(C)NC(C)=C(C(=O)OCC(C)(C)CN2CCN(C(=O)Cc3ccccc3)CC2)C1c1cccc([N+](=O)[O-])c1 (centres unmarked) [Example 5],-90 mmHg,-87 mmHg,–
CCOC(=O)CN1CCN(CC(C)(C)COC(=O)C2=C(C)NC(C)=C(C(=O)OC)C2c2cccc([N+](=O)[O-])c2)CC1 (centres unmarked) [Example 25],–,–,500 mg/mL
"COC(=O)C1=C(C)NC(C)=C(C(=O)OCC(C)(C)CN2CCN(CCC#N)CC2)C1c1cccc([N+](=O)[O-])c1 (centres unmarked) [Example 14, 2,2-Dimethyl-3-[4-(2-cyanoethyl)-1-piperazinyl]propyl Methyl 1,4-Dihydro-2,6-dimethyl-4-(3-nitrophenyl)-3,5-pyridinedicarboxylateDihydrochloride]",-43 mmHg,-88 mmHg,500 mg/mL
COC(=O)C1=C(C)NC(C)=C(C(=O)OCC(C)(C)CN2CCN(C(=O)C=Cc3ccccc3)CC2)C1c1cccc([N+](=O)[O-])c1 (centres unmarked) [Example 7],-76 mmHg,-84 mmHg,–
"CC=CCN1CCN(CC(C)(C)COC(=O)C2=C(C)NC(C)=C(C(=O)OC)C2c2cccc([N+](=O)[O-])c2)CC1.Cl.Cl (centres unmarked) [Example 20, 2,2-Dimethyl-3-[4-(2-butenyl)-1-piperazinyl]propyl Methyl 1,4-Dihydro-2,6-dimethyl-4-(3-nitrophenyl)-3,5-pyridinedicarboxylate Dihydrochloride]",-84 mmHg,-82 mmHg,625 mg/mL
"C#CCCCN1CCN(CC(C)(C)COC(=O)C2=C(C)NC(C)=C(C(=O)OC)C2c2cccc([N+](=O)[O-])c2)CC1.Cl.Cl (centres unmarked) [Example 21, 2,2-Dimethyl-3-[4-(4-pentynyl)-1-piperazinyl]propyl Methyl 1,4-Dihydro-2,6-dimethyl-4-(3-nitrophenyl)-3,5-pyridinedicarboxylate Dihydrochloride]",-112 mmHg,-98 mmHg,500 mg/mL
"COC(=O)C1=C(C)NC(C)=C(C(=O)OCC(C)(C)CN2CCN(CC=Cc3ccccc3)CC2)C1c1cccc([N+](=O)[O-])c1.Cl.Cl (centres unmarked) [Example 13, 2,2-Dimethyl-3-(4-cinnamyl-1-piperazinyl)propyl Methyl 1,4-Dihydro-2,6-dimethyl-4-(3-nitrophenyl)-3,5-pyridinedicarboxylate Dihydrochloride]",-69 mmHg,-77 mmHg,–
C=C(C)CN1CCN(CC(C)(C)COC(=O)C2=C(C)NC(C)=C(C(=O)OC)C2c2cccc([N+](=O)[O-])c2)CC1 (centres unmarked) [Example 17],-112 mmHg,-107 mmHg,312 mg/mL
"COC(=O)C1=C(C)NC(C)=C(C(=O)OCC(C)(C)CN2CCN(CCO)CC2)C1c1cccc([N+](=O)[O-])c1 (centres unmarked) [Example 15, 2,2-Dimethyl-3-[4-(2-hydroxyethyl)-1-piperazinyl]propyl Methyl 1,4-Dihydro-2,6-dimethyl-4-(3-nitrophenyl)-3,5-pyridinedicarboxylateDihydrochloride]",-52 mmHg,-47 mmHg,500 mg/mL
CNC(=O)CN1CCN(CC(C)(C)COC(=O)C2=C(C)NC(C)=C(C(=O)OC)C2c2cccc([N+](=O)[O-])c2)CC1 (centres unmarked) [Example 27],-83 mmHg,-60 mmHg,500 mg/mL
